Measured values taken from paper PMC10657444, “Design and evaluation of tadpole-like conformational antimicrobial peptides” (Communications Biology, 2023).
Values after ≈ are worked out from the molar mass of the structure shown. Non-standard residues stand in square brackets, D forms with d. Residues, ends and D or L forms follow the SMILES beside them.

Legend:
[1] = system: E. coli ATCC 25922; format: cell-based, Escherichia coli
Text: Bacteria were cultivated in Luria-Bertani (LB) broth.

[2] = system: MRSA USA 300; test: microbe, parasite or virus in culture; format: cell-based, Staphylococcus aureus
Protocol: (§1) MRSA USA 300 and K. pneumoniae ATCC 700603 were employed to assess the development of resistance. From inoculated microtiter panels, an aliquot of the well with the highest concentration permitting growth was taken and back diluted in fresh media to a turbidity of a 0.5 McFarland standard. This suspension was then further diluted and used to inoculate a fresh MIC panel resulting in a final concentration of 5 × 10^6 CFU/mL. Panels were incubated according to CLSI guidelines (M07, 11th edition, 2018), MICs were recorded and the next inoculum was prepared from the well containing the highest concentration of drug that allowed growth in identical fashion as described above.

[3] = system: K. pneumoniae ATCC 700603; test: microbe, parasite or virus in culture; format: cell-based, Klebsiella pneumoniae
Protocol: as §1

[4] = system: K. pneumoniae ATCC 700603; test: Scanning electron microscopy; format: cell-based, Klebsiella pneumoniae; settings: 2 × MIC, 60 min
Protocol: Mid-log phase bacteria (MRSA USA 300 and K. pneumoniae ATCC 700603) grown in LB broth were adjusted to a density of 5 × 10^6 CFU/mL. […] All samples were centrifuged at 8000 rpm for 5 min, washed and then resuspended in PBS. Bacterial cells were fixed with 2.5% glutaraldehyde, and then incubated at 37°C on a glass slide for 20 min. Samples were dehydrated by passing through gradient ethanol (10%, 30%, 50%, 70%, 90%, and 100%) for 5 min at each concentration. Slides were dried with an automatic critical point drying instrument (Leica EM CPD300), and a small amount of gold was sputtered onto the samples using a sputter coater system to avoid charging in the microscope. Finally, the bacteria were visualized under a field-emission scanning electron microscopy (FESEM) device (Sirion 200).

[5] = system: K. pneumoniae ATCC 700603; test: Transmission electron microscopy; format: cell-based, Klebsiella pneumoniae; settings: 2 × MIC, 60 min
Protocol: The processing method of the samples for transmission electron microscopy (TEM) was the same as the treatment for SEM. The samples were then prefixed with 2.5% glutaraldehyde at 4°C overnight, post-fixed with osmium tetroxide for 70 min, and washed twice with PBS (pH 7.4). Subsequently, the samples were dehydrated for 10 min in a graded ethanol series (30, 50, 70, 90, and 100%) followed by 10 min in a mixture of absolute ethanol and acetone (1:1, v/v) and 10 min in absolute acetone. The specimens were transferred to a mixture of absolute acetone and epoxy resin (1:1, v/v) for 30 min and then to pure epoxy resin overnight at a constant temperature. Finally, the samples were sectioned using an ultramicrotome, stained with uranyl acetate and lead citrate, and then observed by TEM (Hitachi H-7650, Japan).

In the case of `CC[C@@H](C)[C@@H](NC(=O)[C@@H](Cc1ccccc1)NC(=O)[C@@H](Cc1ccccc1)NC(=O)[C@@H](Cc1ccccc1)NC(=O)[C@H](N)Cc1ccccc1)C(=O)N[C@H](CCCNC(=N)N)C(=O)N[C@H](CCCNC(=N)N)C(=O)N[C@H](CC(C)C)C(=O)N[C@H](Cc1ccccc1)C(=O)N[C@H](CCCNC(=N)N)C(N)=O` [RI-HT2] (H-[dF][dF][dF][dF][dI][dR][dR][dL][dF][dR]-NH2; N-terminus assumed), the “MIC Gram- E. coli ATCC 25922” value [1] is reported as 3.13 µM (≈ 4.53 µg/mL), the “Concentration (MIC in drug resistance assay)” value (“Concentration” for short) ([2]; MRSA USA 300, day 0) is reported as 2 µg/mL and the “Concentration” value ([2]; MRSA USA 300, day 1) is reported as 2 µg/mL. For the same compound, the “Concentration” value ([2]; MRSA USA 300, day 2) was 2 µg/mL, the “Concentration” value ([2]; MRSA USA 300, day 3) was 2 µg/mL and the “Concentration” value ([2]; MRSA USA 300, day 4) was 4 µg/mL. For the same compound, the “Concentration” value ([2]; MRSA USA 300, day 5) was 2 µg/mL, the “Concentration” value ([2]; MRSA USA 300, day 6) was 2 µg/mL and the “Concentration” value ([2]; MRSA USA 300, day 7) was 4 µg/mL. For the same compound, the “Concentration” value ([2]; MRSA USA 300, day 8) was 4 µg/mL, the “Concentration” value ([2]; MRSA USA 300, day 9) was 8 µg/mL and the “Concentration” value ([2]; MRSA USA 300, day 10) was 4 µg/mL. For the same compound, the “Concentration” value ([2]; MRSA USA 300, day 11) was 4 µg/mL, the “Concentration” value ([2]; MRSA USA 300, day 12) was 4 µg/mL and the “Concentration” value ([2]; MRSA USA 300, day 13) was 4 µg/mL. The “Concentration” value ([2]; MRSA USA 300, day 14) was 4 µg/mL, the “Concentration” value ([2]; MRSA USA 300, day 15) was 8 µg/mL and the “Concentration” value ([2]; MRSA USA 300, day 16) was 4 µg/mL. The “Concentration” value ([2]; MRSA USA 300, day 17) was 4 µg/mL, the “Concentration” value ([2]; MRSA USA 300, day 18) was 8 µg/mL and the “Concentration” value ([2]; MRSA USA 300, day 19) was 8 µg/mL. For the same compound, the “Concentration” value ([2]; MRSA USA 300, day 20) was 8 µg/mL, the “Concentration” value ([2]; MRSA USA 300, day 21) was 4 µg/mL and the “Concentration” value ([2]; MRSA USA 300, day 22) was 8 µg/mL. The “Concentration” value ([2]; MRSA USA 300, day 23) was 8 µg/mL, the “Concentration” value ([2]; MRSA USA 300, day 24) was 4 µg/mL and the “Concentration” value ([2]; MRSA USA 300, day 25) was 8 µg/mL. For the same compound, the “Concentration” value ([2]; MRSA USA 300, day 26) was 4 µg/mL, the “Concentration” value ([2]; MRSA USA 300, day 27) was 8 µg/mL and the “Concentration” value ([2]; MRSA USA 300, day 28) was 8 µg/mL. For the same compound, the “Concentration” value ([2]; MRSA USA 300, day 29) was 8 µg/mL, the “Concentration” value ([2]; MRSA USA 300, day 30) was 8 µg/mL and the “Concentration” value ([2]; MRSA USA 300, day 31) was 8 µg/mL. For the same compound, the “Concentration” value ([2]; MRSA USA 300, day 32) was 4 µg/mL, the “Concentration” value ([2]; MRSA USA 300, day 33) was 8 µg/mL and the “Concentration” value ([2]; MRSA USA 300, day 34) was 8 µg/mL. The “Concentration” value ([2]; MRSA USA 300, day 35) was 8 µg/mL, the “Concentration” value ([2]; MRSA USA 300, day 36) was 8 µg/mL and the “Concentration” value ([2]; MRSA USA 300, day 37) was 8 µg/mL. The “Concentration” value ([2]; MRSA USA 300, day 38) was 8 µg/mL, the “Concentration” value ([2]; MRSA USA 300, day 39) was 8 µg/mL and the “Concentration” value ([2]; MRSA USA 300, day 40) was 4 µg/mL. For the same compound, the “increase in MIC after 40 passages” value ([2]; serial passage at sub-MIC) was “four-fold”, the “Concentration” value ([3]; K. pneumoniae ATCC 700603, day 0) was 6.25 µg/mL and the “Concentration” value ([3]; K. pneumoniae ATCC 700603, day 1) was 6.25 µg/mL. For the same compound, the “Concentration” value ([3]; K. pneumoniae ATCC 700603, day 2) was 6.25 µg/mL, the “Concentration” value ([3]; K. pneumoniae ATCC 700603, day 3) was 6.25 µg/mL and the “Concentration” value ([3]; K. pneumoniae ATCC 700603, day 4) was 12.5 µg/mL. The “Concentration” value ([3]; K. pneumoniae ATCC 700603, day 5) was 6.25 µg/mL, the “Concentration” value ([3]; K. pneumoniae ATCC 700603, day 6) was 6.25 µg/mL and the “Concentration” value ([3]; K. pneumoniae ATCC 700603, day 7) was 12.5 µg/mL. For the same compound, the “Concentration” value ([3]; K. pneumoniae ATCC 700603, day 8) was 25 µg/mL, the “Concentration” value ([3]; K. pneumoniae ATCC 700603, day 9) was 12.5 µg/mL and the “Concentration” value ([3]; K. pneumoniae ATCC 700603, day 10) was 12.5 µg/mL. The “Concentration” value ([3]; K. pneumoniae ATCC 700603, day 11) was 12.5 µg/mL, the “Concentration” value ([3]; K. pneumoniae ATCC 700603, day 12) was 25 µg/mL and the “Concentration” value ([3]; K. pneumoniae ATCC 700603, day 13) was 12.5 µg/mL. The “Concentration” value ([3]; K. pneumoniae ATCC 700603, day 14) was 25 µg/mL, the “Concentration” value ([3]; K. pneumoniae ATCC 700603, day 15) was 25 µg/mL and the “Concentration” value ([3]; K. pneumoniae ATCC 700603, day 16) was 12.5 µg/mL. The “Concentration” value ([3]; K. pneumoniae ATCC 700603, day 17) was 25 µg/mL, the “Concentration” value ([3]; K. pneumoniae ATCC 700603, day 18) was 25 µg/mL and the “Concentration” value ([3]; K. pneumoniae ATCC 700603, day 19) was 25 µg/mL. For the same compound, the “Concentration” value ([3]; K. pneumoniae ATCC 700603, day 20) was 25 µg/mL, the “Concentration” value ([3]; K. pneumoniae ATCC 700603, day 21) was 25 µg/mL and the “Concentration” value ([3]; K. pneumoniae ATCC 700603, day 22) was 25 µg/mL. For the same compound, the “Concentration” value ([3]; K. pneumoniae ATCC 700603, day 23) was 25 µg/mL, the “Concentration” value ([3]; K. pneumoniae ATCC 700603, day 24) was 25 µg/mL and the “Concentration” value ([3]; K. pneumoniae ATCC 700603, day 25) was 25 µg/mL. For the same compound, the “Concentration” value ([3]; K. pneumoniae ATCC 700603, day 26) was 12.5 µg/mL, the “Concentration” value ([3]; K. pneumoniae ATCC 700603, day 27) was 25 µg/mL and the “Concentration” value ([3]; K. pneumoniae ATCC 700603, day 28) was 25 µg/mL. The “Concentration” value ([3]; K. pneumoniae ATCC 700603, day 29) was 25 µg/mL, the “Concentration” value ([3]; K. pneumoniae ATCC 700603, day 30) was 25 µg/mL and the “Concentration” value ([3]; K. pneumoniae ATCC 700603, day 31) was 25 µg/mL. The “Concentration” value ([3]; K. pneumoniae ATCC 700603, day 32) was 12.5 µg/mL, the “Concentration” value ([3]; K. pneumoniae ATCC 700603, day 33) was 25 µg/mL and the “Concentration” value ([3]; K. pneumoniae ATCC 700603, day 34) was 12.5 µg/mL. For the same compound, the “Concentration” value ([3]; K. pneumoniae ATCC 700603, day 35) was 25 µg/mL, the “Concentration” value ([3]; K. pneumoniae ATCC 700603, day 36) was 25 µg/mL and the “Concentration” value ([3]; K. pneumoniae ATCC 700603, day 37) was 12.5 µg/mL. For the same compound, the “Concentration” value ([3]; K. pneumoniae ATCC 700603, day 38) was 25 µg/mL, the “Concentration” value ([3]; K. pneumoniae ATCC 700603, day 39) was 25 µg/mL and the “Concentration” value ([3]; K. pneumoniae ATCC 700603, day 40) was 12.5 µg/mL. For the same compound, the “increase in MIC after 40 passages” value ([3]; serial passage at sub-MIC) was “four-fold”, the “cell surface morphology by SEM (in words)” value [4] was “rough, shrunken, wrinkled and partially damaged” and the “membrane and intracellular structure by TEM (in words)” value [5] was “cytoplasmic membranes became blurred and separated”.
